# Reference: patent US20190330192A1, “SUBSTITUTED AZOLYLPYRROLONES AND AZOLYLHYDANTOINS AND SALTS THEREOF AND USE THEREOF AS HERBICIDAL ACTIVE SUBSTANCES” (Bayer CropScience Aktiengesellschaft, priority 2016, published 2019)
# Biological target: T1, photosystem II (PS II) (Spinacia oleracea, UniProt P69560)
# T1 construct: the chloroplasts were osmotically ruptured and the thylakoid membranes were then obtained by centrifugation; from tissue; host or cells: fresh spinach leaves; thylakoid membranes from isolated chloroplasts
# Experiment: Measurement of the PS II activity in thylakoid membranes (DCPIP reduction)
# Assay type: biochemical
# Settings: test compound at 100 μM; spinach thylakoid membranes; DCPIP absorption at 595 nm over 10 min at 22° C. with exposure to light; read-out: Effect (inhibition of PS II activity)
# Description: Cooled fresh spinach leaves were comminuted and homogenized in 50 mM phosphate buffer, pH 6.8. 10 mM KCl, 0.34 M sucrose (sucrose buffer) (blender, 1 g of plant material/ml). The homogenate was subsequently filtered through 4 layers of Miracloth and the chloroplasts were isolated by centrifugation, i.e. 10 min of centrifugation at 4400×g (4° C.). The sediment was suspended in 25 ml of sucrose buffer and re-centrifuged for 10 min at 4400×g (4° C.). The sediment was then suspended in 40 ml of 50 mM phosphate buffer, pH 6.8, 10 mM KCl, without sucrose. In this step, the chloroplasts were osmotically ruptured and the thylakoid membranes were then obtained by centrifugation (10 min, 4400×g, 4° C.). The membrane sediment was finally suspended in 20 ml of 50 mM phosphate buffer, pH 6.8, 10 mM KCl. […]
# The electron transfer from PS II to an artificial electron acceptor, 2,6-dichlorophenolindophenol (DCPIP), was measured with exposure to light. The concentration of the blue oxidized form of DCPIP was determined spectrophotometrically at wavelength λ=595 nm. […]
# Depending on the activity of the PS II preparation, the dilution was adjusted such that the measurement of the decrease in absorption (λ=595 nm) was linear for at least 10 min. […] On each microtiter plate, a known PS II inhibitor, for example metribuzin, was used as standard, which allowed the quality of the PS II test to be assessed. […]
Compound,inhibition at 100 µM (stock),inhibition at 100 µM
"CCC(=O)OC1C(C)=C(Cl)C(=O)N1c1nc(SC)n(C)n1 (centres unmarked) [1.74-185, 4-Chloro-3-methyl-1-[1-methyl-5-(methylsulfanyl)-1H-1,2,4-triazol-3-yl]-5-oxo-2,5-dihydro-1H-pyrrol-2-ylpropionate]",30 to 50%,–
"CC1=C(Cl)C(=O)N(c2nnn(C)n2)C1O (centres unmarked) [1.82-2, 3-Chloro-5-hydroxy-4-methyl-1-(1-methyl-1H-1,2,4,5-tetrazol-3-yl)-1,5-dihydro-2H-pyrrol-2-one]",–,50 to 70%
